This note sets out measurements from ChEMBL document CHEMBL1201862, “PubChem BioAssay data set” (2004).

The structures appear in SMILES notation.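 Grown in 96-well plates, cells were treated for 48 hours with each compound at five concentrations. Insufficient inhibition: endpoint recorded as highest concentration tested. Abbreviation: GI50, concentration required for 50% inhibition of growth.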 The source made the active and inactive calls. No stated cut-off is given here; in the data, active = GI50 up to about 1.1 µM and inactive = higher. Residues, ends and D or L forms follow the SMILES beside them. *: point of attachment. Boc = CC(C)(C)OC(=O)*; OBn = c1ccc(CO*)cc1; Bn = c1ccc(C*)cc1

Among the test systems are MDA-MB-231; CCRF-CEM; A498; HCC 2998; NCI-H460; MOLT-4; 786-0; Hs-578T; SW-620; SF-295; SR; SK-MEL-5; OVCAR-3; RXF 393; OVCAR-5; EKVX; T47D; Malme-3M; SNB-19; UO-31.
Assay in all cases: NCI-60 cell line screen, 48 h

On to `COc1ccc(CC2NC(=O)/C=C/CC(C(C)C3OC3c3ccccc3)OC(=O)C(CC(C)C)OC(=O)C(C)CNC2=O)cc1Cl` (stereo not drawn), for which the GI50 in the assay on MDA-MB-231 was 1.47e-05 µM (active); with CCRF-CEM, < 1e-05 µM (active); in the assay on A498, < 1e-05 µM (active); with HCC 2998, 3.07e-05 µM (active); in the assay on NCI-H460, < 1e-05 µM (active); in the assay on MOLT-4 it was 3.4e-05 µM (active). Besides, the GI50 in the assay on 786-0 was < 1e-05 µM (active); in the assay on Hs-578T, 1.78e-05 µM (active); in the assay on SW-620, 1.36e-05 µM (active); in the assay on SF-295 it was 1.34e-05 µM (active); in the assay with SR, < 1e-05 µM (active); in the assay with SK-MEL-5, < 1e-05 µM (active). Moreover, the GI50 in the assay with OVCAR-3 and with RXF 393 was < 1e-05 µM (active) in each case.
With `CCC(C=O)P1(=O)OC(C)(C)CN1C(C)(C)C` (stereo not drawn), the GI50 with MDA-MB-231 is > 100 µM (inactive); in the assay on OVCAR-5 it was > 100 µM (inactive); with A498, 81.8 µM (inactive); in the assay on HCC 2998 it was 76.7 µM (inactive); with EKVX, 91.4 µM (inactive); with NCI-H460, > 100 µM (inactive). Besides, the GI50 with 786-0 was > 100 µM (inactive); in the assay with T47D it was 31.6 µM (inactive); with Malme-3M it was 68.1 µM (inactive); in the assay on SW-620, > 100 µM (inactive); in the assay on SF-295, 32.5 µM (inactive); in the assay with SR it was > 100 µM (inactive). For the same compound, the GI50 in the assay with SK-MEL-5 was > 100 µM (inactive); in the assay with SNB-19, > 100 µM (inactive); in the assay on UO-31 it was > 100 µM (inactive); in the assay with OVCAR-3 it was 20.6 µM (inactive).
With `COc1c2cc(C(C)(C)C)cc1Cc1cccc(c1OCc1cccc([N+](=O)[O-])c1)Cc1cc(C(C)(C)C)cc(c1OC)Cc1cccc(c1OCc1cccc([N+](=O)[O-])c1)Cc1cc(C(C)(C)C)cc(c1OC)Cc1cccc(c1OCc1cccc([N+](=O)[O-])c1)C2`, the GI50 was > 50 µM (inactive) in the assay on MDA-MB-231; > 5 µM (inactive) in the assay on CCRF-CEM; > 50 µM (inactive) with OVCAR-5; > 50 µM (inactive) with A498; > 50 µM (inactive) in the assay on HCC 2998; > 50 µM (inactive) in the assay with EKVX. Moreover, the GI50 in the assay on NCI-H460, with MOLT-4, in the assay on 786-0, in the assay on T47D, in the assay with Malme-3M and in the assay with SW-620 was > 50 µM (inactive) each time. Moreover, the GI50 in the assay on SF-295, in the assay on SR, in the assay with SK-MEL-5, in the assay on SNB-19, with UO-31 and with OVCAR-3 was > 50 µM (inactive) each time. Besides, the GI50 in the assay with RXF 393 is > 50 µM (inactive).
Take `CC(C)CC(NC(=O)C(Cc1ccccc1)NC(=O)C(COCc1ccccc1)NC(=O)OC(C)(C)C)C(=O)OCc1ccccc1` (stereo not drawn) (Boc-Ser(Bn)-Phe-Leu-OBn; configuration not given here): the GI50 is 27.1 µM (inactive) in the assay on MDA-MB-231; 26.2 µM (inactive) in the assay with CCRF-CEM; 39.4 µM (inactive) with OVCAR-5; 95.9 µM (inactive) in the assay on A498; 14.7 µM (inactive) in the assay with HCC 2998; 24.8 µM (inactive) with EKVX. Further, the GI50 in the assay on NCI-H460 was 11.9 µM (inactive); with MOLT-4, 13.9 µM (inactive); in the assay on 786-0 it was 17.1 µM (inactive); in the assay on T47D, > 100 µM (inactive); with Malme-3M, 78.2 µM (inactive); in the assay on SW-620, 22.1 µM (inactive). For the same compound, the GI50 in the assay with SF-295 is 21.8 µM (inactive); with SR, 20.2 µM (inactive); with SNB-19 it was > 100 µM (inactive); in the assay with UO-31, 39.5 µM (inactive); in the assay with OVCAR-3 it was 20 µM (inactive).
Regarding `CCOC(=O)c1nc2c3c(ncn2n1)Oc1c(c(-c2ccccc2)nn1-c1ccccc1)C3c1ccc(OC)c(OC)c1` (stereo not drawn), the GI50 is 37.2 µM (inactive) in the assay with MDA-MB-231; > 100 µM (inactive) in the assay with CCRF-CEM; > 100 µM (inactive) with OVCAR-5; > 100 µM (inactive) with HCC 2998; 50.4 µM (inactive) in the assay with EKVX; 22.3 µM (inactive) in the assay with NCI-H460. Further, the GI50 with MOLT-4 is > 100 µM (inactive); in the assay with 786-0 it was 31 µM (inactive); in the assay with Hs-578T, 12.4 µM (inactive); with Malme-3M, > 100 µM (inactive); in the assay with SW-620 it was > 100 µM (inactive); in the assay with SF-295, 23.8 µM (inactive). For the same compound, the GI50 is 51.8 µM (inactive) with SR; 78.9 µM (inactive) in the assay on SK-MEL-5; 24.3 µM (inactive) in the assay with SNB-19; > 100 µM (inactive) with UO-31; > 100 µM (inactive) in the assay on OVCAR-3; 23.4 µM (inactive) in the assay with RXF 393.
On to `CC#Cc1ccc(-c2ccccc2)s1`, for which the GI50 in the assay on MDA-MB-231, in the assay on CCRF-CEM, with OVCAR-5, in the assay with A498, with EKVX and with NCI-H460 was > 100 µM (inactive) each time. In addition, the GI50 in the assay on MOLT-4, with 786-0, in the assay with Hs-578T, with SW-620, in the assay on SF-295 and with SR was > 100 µM (inactive) each time. Besides, the GI50 in the assay on SK-MEL-5, with SNB-19, in the assay with UO-31, in the assay on OVCAR-3 and in the assay on RXF 393 was > 100 µM (inactive) throughout.
As to `O=c1oc2c(Cl)cc(Cl)cc2cc1C1=CSC2=NCCN12`, the GI50 in the assay on MDA-MB-231 was 28.9 µM (inactive); with CCRF-CEM, 31.3 µM (inactive); in the assay on OVCAR-5 it was > 100 µM (inactive); in the assay with EKVX it was 41.9 µM (inactive); in the assay on NCI-H460, 57.5 µM (inactive); with MOLT-4, 39.3 µM (inactive). For the same compound, the GI50 was 40.8 µM (inactive) in the assay with 786-0; 36.5 µM (inactive) in the assay on T47D; 50.5 µM (inactive) with SW-620; 40 µM (inactive) with SF-295; 40.6 µM (inactive) with SR; 27.4 µM (inactive) in the assay with SK-MEL-5. Further, the GI50 was 44.8 µM (inactive) in the assay with SNB-19, 29.3 µM (inactive) in the assay with UO-31, 26.7 µM (inactive) in the assay with OVCAR-3 and 34.2 µM (inactive) in the assay on RXF 393.
For the compound `COc1ccc(CSc2ccccc2Cn2cccc2)cc1OC`, the GI50 was 50.5 µM (inactive) with CCRF-CEM; > 100 µM (inactive) in the assay on OVCAR-5; 27.6 µM (inactive) in the assay on A498; 56.6 µM (inactive) with HCC 2998; 82.8 µM (inactive) with EKVX; > 100 µM (inactive) in the assay with NCI-H460. The GI50 in the assay with MOLT-4 is > 10 µM (inactive); in the assay on 786-0 it was > 100 µM (inactive); with T47D it was 35.2 µM (inactive); with Malme-3M it was 28.3 µM (inactive); with SW-620 it was > 100 µM (inactive); with SF-295 it was 25.5 µM (inactive). For the same compound, the GI50 was 50.5 µM (inactive) in the assay with SR; 22.4 µM (inactive) in the assay with SK-MEL-5; > 100 µM (inactive) in the assay with SNB-19; 39.4 µM (inactive) in the assay on UO-31; 16 µM (inactive) in the assay on OVCAR-3.
Consider `O=C(O)CCCNc1ncc2c(n1)-c1ccccc1OC2`, for which the GI50 in the assay on MDA-MB-231, with CCRF-CEM, in the assay on OVCAR-5, with EKVX, in the assay on NCI-H460 and with MOLT-4 was > 100 µM (inactive) in each case. Also, the GI50 in the assay on 786-0, in the assay with Hs-578T, in the assay on Malme-3M, in the assay on SW-620, with SF-295 and in the assay on SR was > 100 µM (inactive) each time. Also, the GI50 was > 100 µM (inactive) in the assay with SK-MEL-5; > 100 µM (inactive) in the assay on SNB-19; 68.2 µM (inactive) in the assay on UO-31; > 100 µM (inactive) in the assay with OVCAR-3; > 100 µM (inactive) in the assay on RXF 393.
Consider `COc1cc(C2c3cc4c(cc3[C@@H](Nc3ccc5c(c3)OCCO5)C3COC(=O)[C@H]23)OCO4)cc(OC)c1O` (stereo partly drawn), for which the GI50 in the assay with MDA-MB-231 was 16.4 µM (inactive); in the assay on CCRF-CEM it was 0.138 µM (active); in the assay with OVCAR-5, 2.22 µM (inactive); with A498 it was 0.19 µM (active); with HCC 2998, 1.1 µM (active); in the assay on EKVX, 2.87 µM (inactive). Besides, the GI50 was 0.0156 µM (active) in the assay with NCI-H460; 0.035 µM (active) with MOLT-4; 0.199 µM (active) in the assay with 786-0; 1.6 µM (inactive) in the assay on Malme-3M; 0.586 µM (active) in the assay with SW-620; 0.301 µM (active) in the assay on SF-295. The GI50 is < 0.0364 µM (active) with SR; 0.448 µM (active) in the assay with SK-MEL-5; 1.04 µM (active) in the assay on SNB-19; 0.499 µM (active) in the assay on UO-31; 0.959 µM (active) in the assay with OVCAR-3; 0.453 µM (active) in the assay on RXF 393.
As to `C1CCC2C(C1)CCCC2NC1=NCCO1` (stereo not drawn), the GI50 was > 100 µM (inactive) in the assay with MDA-MB-231; > 100 µM (inactive) in the assay with CCRF-CEM; > 100 µM (inactive) with OVCAR-5; > 100 µM (inactive) with A498; 72.9 µM (inactive) in the assay with HCC 2998; > 100 µM (inactive) in the assay with EKVX. The GI50 with NCI-H460, in the assay on MOLT-4, with 786-0, with T47D, in the assay with Malme-3M and in the assay on SW-620 was > 100 µM (inactive) each time. Further, the GI50 is > 100 µM (inactive) in the assay on SF-295; 45 µM (inactive) with SR; 70 µM (inactive) in the assay with SK-MEL-5; > 100 µM (inactive) in the assay on SNB-19; > 100 µM (inactive) with UO-31; > 100 µM (inactive) in the assay with OVCAR-3. Besides, in the assay with RXF 393, the GI50 is 86.7 µM (inactive).
